Consider 9 compounds from patent publication US8530667B2, “Herbicides” (Syngenta Limited, priority 2007, dated 2013).

Holding throughout (type): in vivo
The subject of assay [1] is Digitaria sanguinalis (DIGSA). The assay is described as follows: Example A post-emergence herbicidal activity, glasshouse pot test. The conditions noted are these: Rate 125 g/ha, evaluated 14 or 15 days later, read-out: Post-Emergence Activity DIGSA (100=total damage to plant; 0=no damage to plant). As to the method: (§1) Seeds of a variety of test species were sown in standard soil in pots. After cultivation for one day (pre-emergence) or after 10 days cultivation (post-emergence) under controlled conditions in a glasshouse, the plants were sprayed with an aqueous spray solution derived from the formulation of the technical active ingredient in 0.6 ml acetone and 45 ml formulation solution containing 10.6% Emulsogen EL (Registry number 61791-12-6), 42.2% N-methylpyrrolidone, 42.2% dipropylene glycol monomethyl ether (Registry number 34590-94-8) and 0.2% X-77 (Registry number 11097-66-8). The test plants were then grown in a greenhouse under optimum conditions until, 14 or 15 days later for post-emergence and 19 or 20 days for pre-emergence, the test was evaluated (100=total damage to plant; 0=no damage to plant). Alopecurus myosuroides (ALOMY), Avena fatua (AVEFA), Lolium perenne (LOLPE), Setaria faberi (SETFA), Digitaria sanguinalis (DIGSA), Echinochloa crus-galli (ECHCG)

Assay [2] relates to Alopecurus myosuroides (ALOMY). Described as above. The following applies: Rate 125 g/ha, evaluated 14 or 15 days later, read-out: Post-Emergence Activity ALOMY (100=total damage to plant; 0=no damage to plant). As to the method:
as §1

The test system of assay [3] is Echinochloa crus-galli (ECHCG). Described as above. The conditions noted are these: Rate 125 g/ha, evaluated 14 or 15 days later, read-out: Post-Emergence Activity ECHCG (100=total damage to plant; 0=no damage to plant). As to the method:
as §1

Assay [4] has as its system Lolium perenne (LOLPE). The assay is described as above. The following applies: Rate 125 g/ha, evaluated 14 or 15 days later, read-out: Post-Emergence Activity LOLPE (100=total damage to plant; 0=no damage to plant). The protocol:
as §1

Assay [5] concerns Setaria faberi (SETFA). Described as above. The conditions noted are these: Rate 125 g/ha, evaluated 14 or 15 days later, read-out: Post-Emergence Activity SETFA (100=total damage to plant; 0=no damage to plant). As to the method: as §1
For assay [6], the system named is Avena fatua (AVEFA). Described as above. The conditions noted are these: Rate 125 g/ha, evaluated 14 or 15 days later, read-out: Post-Emergence Activity AVEFA (100=total damage to plant; 0=no damage to plant). The protocol:
as §1

Assay [7] relates to Digitaria sanguinalis (DIGSA). Kind of assay: Example A pre-emergence herbicidal activity, glasshouse pot test. The conditions noted are these: evaluated 19 or 20 days later, read-out: Pre-Emergence Activity DIGSA (100=total damage to plant; 0=no damage to plant); for pest or weed control at 500 g/ha: Rate 500 g/ha; for pest or weed control at 250 g/ha: Rate 250 g/ha. The protocol: as §1

The subject of assay [8] is Alopecurus myosuroides (ALOMY). The description is as above. The conditions noted are these: evaluated 19 or 20 days later, read-out: Pre-Emergence Activity ALOMY (100=total damage to plant; 0=no damage to plant); for pest or weed control at 500 g/ha: Rate 500 g/ha; for pest or weed control at 250 g/ha: Rate 250 g/ha. The protocol:
as §1

Assay [9] relates to Echinochloa crus-galli (ECHCG). Described as above. The conditions noted are these: evaluated 19 or 20 days later, read-out: Pre-Emergence Activity ECHCG (100=total damage to plant; 0=no damage to plant); for pest or weed control at 500 g/ha: Rate 500 g/ha; for pest or weed control at 250 g/ha: Rate 250 g/ha. The protocol: as §1
In assay [10] the test system is Lolium perenne (LOLPE). The assay is described as above. The following applies: evaluated 19 or 20 days later, read-out: Pre-Emergence Activity LOLPE (100=total damage to plant; 0=no damage to plant); for pest or weed control at 500 g/ha: Rate 500 g/ha; for pest or weed control at 250 g/ha: Rate 250 g/ha. The protocol:
as §1

Assay [11] has as its system Setaria faberi (SETFA). The assay is described as above. The following applies: evaluated 19 or 20 days later, read-out: Pre-Emergence Activity SETFA (100=total damage to plant; 0=no damage to plant); for pest or weed control at 500 g/ha: Rate 500 g/ha; for pest or weed control at 250 g/ha: Rate 250 g/ha. The protocol: as §1
Assay [12] relates to Avena fatua (AVEFA). The assay is described as above. The following applies: evaluated 19 or 20 days later, read-out: Pre-Emergence Activity AVEFA (100=total damage to plant; 0=no damage to plant); for pest or weed control at 500 g/ha: Rate 500 g/ha; for pest or weed control at 250 g/ha: Rate 250 g/ha. The protocol: as §1

As to `Cc1sc(-c2ccc(Cl)cc2)cc1C1C(=O)[C@@H]2[C@H](C1=O)[C@H]1CC[C@@H]2O1` (stereo partly drawn) [Compound T12], the pest or weed control at 125 g/ha in assay [1] was determined as 80%; in assay [2] it was 80%; in assay [3] it was 80%; with Lolium perenne (LOLPE) [4] it was 30%; in the assay on Setaria faberi (SETFA) [5], 70%; in the assay on Avena fatua (AVEFA) [6], 80%. Also, the pest or weed control at 500 g/ha amounted to 0% in assay [7]; 10% in assay [8]; 30% in [9]; 10% in the assay on Lolium perenne (LOLPE) [10]; 20% with Setaria faberi (SETFA) [11]; 20% with Avena fatua (AVEFA) [12].
On to `CCc1c(Br)sc(C)c1C1C(=O)[C@@H]2[C@H](C1=O)[C@H]1CC[C@@H]2O1` (stereo partly drawn) [Compound T14, 4-(5-bromo-4-ethyl-2-methyl-thiophen-3-yl)-10-oxa-tricyclo[5.2.1.0*2,6*]decane-3,5-dione], for which the pest or weed control at 125 g/ha in assay [1] is 60%; in [2], 90%; in [3], 100%; in the assay on Lolium perenne (LOLPE) [4] it was 80%; in the assay with Setaria faberi (SETFA) [5], 80%; in the assay on Avena fatua (AVEFA) [6], 100%. Further, the pest or weed control at 250 g/ha in assay [7] came out at 70%; in assay [8], 90%; in assay [9], 90%; in the assay on Lolium perenne (LOLPE) [10], 100%; in the assay with Setaria faberi (SETFA) [11], 100%; in the assay on Avena fatua (AVEFA) [12], 60%.
Take `CCc1csc(CC)c1C1C(=O)[C@@H]2[C@H](C1=O)[C@H]1CC[C@@H]2O1` (stereo partly drawn) [Compound T15]: the pest or weed control at 125 g/ha was 40% in [1]; 50% in [2]; 90% in assay [3]; 40% in the assay on Lolium perenne (LOLPE) [4]; 70% in the assay with Setaria faberi (SETFA) [5]; 40% in the assay on Avena fatua (AVEFA) [6]. For the same compound, the pest or weed control at 250 g/ha in assay [7] was determined as 30%; in assay [8] it was 70%; in assay [9] it was 90%; in the assay with Lolium perenne (LOLPE) [10] it was 10%; with Setaria faberi (SETFA) [11], 20%; with Avena fatua (AVEFA) [12] it was 10%.
Regarding `Cc1sc(-c2ccc(Cl)cc2)nc1C1C(=O)[C@@H]2[C@H](C1=O)[C@H]1CC[C@@H]2O1` (stereo partly drawn) [Compound T22], the pest or weed control at 125 g/ha in assay [1] is 100%; in assay [2] it was 70%; in [3], 100%; with Lolium perenne (LOLPE) [4], 20%; in the assay on Setaria faberi (SETFA) [5], 60%; in the assay with Avena fatua (AVEFA) [6] it was 70%. Also, the pest or weed control at 250 g/ha (in assay [7]; in assay [8]; in assay [9]; in the assay with Lolium perenne (LOLPE) [10]; with Setaria faberi (SETFA) [11]; in the assay with Avena fatua (AVEFA) [12]) was 100% throughout.
As to `CCc1sc(-c2ccc(Cl)cc2)nc1C1C(=O)[C@@H]2[C@H](C1=O)[C@H]1CC[C@@H]2O1` (stereo partly drawn) [Compound T23, 4-[2-(4-chloro-phenyl)-5-ethyl-thiazol-4-yl]-10-oxa-tricyclo[5.2.1.0*2,6*]decane-3,5-dione], the pest or weed control at 125 g/ha (in assay [1]; in [2]; in assay [3]; in the assay on Lolium perenne (LOLPE) [4]; in the assay on Setaria faberi (SETFA) [5]; in the assay on Avena fatua (AVEFA) [6]) was 100% each time. The pest or weed control at 500 g/ha was determined as 100% in assay [7]; 100% in [8]; 100% in assay [9]; 90% in the assay with Lolium perenne (LOLPE) [10]; 100% in the assay on Setaria faberi (SETFA) [11]; 90% in the assay with Avena fatua (AVEFA) [12].
With `Cc1sc(-c2ccc(Cl)cc2)nc1C1C(=O)[C@@H]2[C@H](C1=O)[C@@]1(C)CC[C@]2(C)O1` (stereo partly drawn) [Compound T26], the pest or weed control at 125 g/ha came to 30% in assay [1]; 10% in [2]; 0% in assay [3]; 0% in the assay with Lolium perenne (LOLPE) [4]; 0% in the assay on Setaria faberi (SETFA) [5]; 0% in the assay with Avena fatua (AVEFA) [6]. Besides, the pest or weed control at 250 g/ha in assay [7] turned out to be 100%; in assay [8], 90%; in assay [9] it was 80%; in the assay with Lolium perenne (LOLPE) [10] it was 70%; in the assay with Setaria faberi (SETFA) [11] it was 100%; in the assay with Avena fatua (AVEFA) [12], 60%.
`CCc1sc(-c2ccc(Cl)cc2)nc1C1C(=O)[C@@H]2[C@H](C1=O)[C@@]1(C)CC[C@]2(C)O1` (stereo partly drawn) [Compound T27]: the pest or weed control at 125 g/ha in assay [1] came out at 100%; in assay [2] it was 80%; in assay [3], 100%; with Lolium perenne (LOLPE) [4] it was 40%; in the assay with Setaria faberi (SETFA) [5] it was 80%; in the assay on Avena fatua (AVEFA) [6] it was 90%. Also, the pest or weed control at 250 g/ha in [7] was found to be 100%; in assay [8] it was 70%; in assay [9], 70%; in the assay with Lolium perenne (LOLPE) [10] it was 90%; in the assay on Setaria faberi (SETFA) [11], 100%; in the assay on Avena fatua (AVEFA) [12] it was 60%.
As for `Cc1sc(-c2ccc(Br)cc2)nc1C1C(=O)[C@@H]2[C@H](C1=O)[C@H]1CC[C@@H]2O1` (stereo partly drawn) [Compound T28], the pest or weed control at 125 g/ha came to 100% in assay [1]; 70% in [2]; 100% in assay [3]; 50% in the assay with Lolium perenne (LOLPE) [4]; 80% with Setaria faberi (SETFA) [5]; 70% with Avena fatua (AVEFA) [6]. The pest or weed control at 250 g/ha (in assay [7]; in assay [8]; in assay [9]; with Lolium perenne (LOLPE) [10]; with Setaria faberi (SETFA) [11]; in the assay on Avena fatua (AVEFA) [12]) was 100% throughout.
With `Cc1sc(-c2ccc(Cl)nc2)nc1C1C(=O)[C@@H]2[C@H](C1=O)[C@H]1CC[C@@H]2O1` (stereo partly drawn) [Compound T30], the pest or weed control at 125 g/ha in assay [1] is 70%; in assay [2], 0%; in [3], 70%; with Lolium perenne (LOLPE) [4] it was 20%; with Setaria faberi (SETFA) [5], 40%; in the assay on Avena fatua (AVEFA) [6], 10%. The pest or weed control at 250 g/ha was determined as 60% in [7]; 10% in [8]; 80% in assay [9]; 40% in the assay with Lolium perenne (LOLPE) [10]; 70% in the assay with Setaria faberi (SETFA) [11]; 30% in the assay on Avena fatua (AVEFA) [12].
